From article PMC8158245, “Novel chalcone/aryl carboximidamide hybrids as potent anti-inflammatory via inhibition of prostaglandin E2 and inducible NO synthase activities: design, synthesis, molecular docking studies and ADMET prediction” (Journal of Enzyme Inhibition and Medicinal Chemistry, 2021)
Several values for one entry are separate records, joined by “and”; a condition that tells them apart may be missing. Equal entries are not always repeated. Where two headings read alike, the source gives them in different places.

Tests used:
[1] = system: COX-2; assay: In vitro COX-2 inhibition assay (Cayman kit); assay type: biochemical, bovine; settings: selectivity index from COX 1 and COX 2 IC50
[2] = system: carrageenan-induced paw edoema; assay: Carrageenan-induced rat paw edoema; assay type: in vivo, Wistar albino rats; settings: rat, 50 mg/kg oral; for % of edoema inhibition (% mean ± SEM), 1 h: 1 h after carrageenan; for % of edoema inhibition (% mean ± SEM), 2 h: 2 h after carrageenan; for % of edoema inhibition (% mean ± SEM), 3 h: 3 h after carrageenan, 50 mg/kg; for % of edoema inhibition (% mean ± SEM), 4 h: 4 h after carrageenan
Experimental: The anti-inflammatory activity of the inspiring active compounds in vitro (4c, 4d, 6a, 6c, 6d and 6e) were further estimated in vivo using the carrageenan-induced paw edoema test. […] The paw thickness was assessed using Vernier calliper after carrageenan injection for 1,2, 3 and 4 h. Wistar albino rats (males weighing 120–140 g, six rats per group) were grouped as follows: Group 1 (Control) rats were received the vehicle. […] The percentage inhibition of edoema thickness was calculated at each time interval in comparison to the control group.

[3] = target: T1, iNOS (Mus musculus, UniProt P29477); assay: iNOS enzymatic activity in LPS-induced RAW 264.7 cells; assay type: cell-based
T1 construct: endogenous in cells; host or cells: RAW 264.7 cells induced with LPS
T1 sequence (P29477 1-1144): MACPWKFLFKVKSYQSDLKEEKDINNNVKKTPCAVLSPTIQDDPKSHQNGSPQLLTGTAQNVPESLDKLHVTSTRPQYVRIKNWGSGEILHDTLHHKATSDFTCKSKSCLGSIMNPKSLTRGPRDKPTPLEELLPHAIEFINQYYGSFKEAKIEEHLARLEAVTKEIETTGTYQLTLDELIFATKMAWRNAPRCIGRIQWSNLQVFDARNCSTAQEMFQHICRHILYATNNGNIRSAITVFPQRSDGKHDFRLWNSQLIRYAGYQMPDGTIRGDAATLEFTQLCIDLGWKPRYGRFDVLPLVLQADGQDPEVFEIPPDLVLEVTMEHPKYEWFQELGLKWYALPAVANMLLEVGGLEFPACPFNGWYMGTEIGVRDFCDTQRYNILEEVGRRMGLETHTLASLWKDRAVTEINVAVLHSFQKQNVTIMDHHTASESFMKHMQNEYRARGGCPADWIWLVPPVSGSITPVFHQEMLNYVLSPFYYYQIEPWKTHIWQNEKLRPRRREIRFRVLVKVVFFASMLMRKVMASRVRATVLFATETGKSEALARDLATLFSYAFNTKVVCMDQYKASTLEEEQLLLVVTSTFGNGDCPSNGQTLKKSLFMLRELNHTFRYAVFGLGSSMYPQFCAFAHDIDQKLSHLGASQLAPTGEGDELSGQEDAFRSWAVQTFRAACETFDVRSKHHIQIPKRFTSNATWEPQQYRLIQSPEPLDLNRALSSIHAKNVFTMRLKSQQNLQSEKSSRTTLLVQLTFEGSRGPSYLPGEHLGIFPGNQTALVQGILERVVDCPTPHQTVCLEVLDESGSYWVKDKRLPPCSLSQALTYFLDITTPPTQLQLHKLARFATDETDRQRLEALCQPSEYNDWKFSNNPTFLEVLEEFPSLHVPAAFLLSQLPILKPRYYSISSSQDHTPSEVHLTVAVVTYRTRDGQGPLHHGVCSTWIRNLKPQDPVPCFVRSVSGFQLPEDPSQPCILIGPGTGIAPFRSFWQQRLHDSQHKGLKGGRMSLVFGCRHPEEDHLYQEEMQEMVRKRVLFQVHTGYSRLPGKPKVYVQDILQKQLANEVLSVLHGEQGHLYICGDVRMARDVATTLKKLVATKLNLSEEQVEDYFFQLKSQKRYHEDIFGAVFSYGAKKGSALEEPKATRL
Experimental: Then, the NOS assay reaction solution (100 µl/well) was added and incubated for an extra 2 h at 37 °C. The fluorescence with excitation wavelength at 485 nm and emission wavelength at 528 nm was measured using a fluorescent microplate reader.

[4] = target: T2, bovine COX-1 (Ovis aries, UniProt P05979); assay: In vitro COX-1 inhibition assay (Cayman kit); assay type: biochemical
T2 construct: purchased Cayman Chemical 560101
T2 sequence (P05979 25-600): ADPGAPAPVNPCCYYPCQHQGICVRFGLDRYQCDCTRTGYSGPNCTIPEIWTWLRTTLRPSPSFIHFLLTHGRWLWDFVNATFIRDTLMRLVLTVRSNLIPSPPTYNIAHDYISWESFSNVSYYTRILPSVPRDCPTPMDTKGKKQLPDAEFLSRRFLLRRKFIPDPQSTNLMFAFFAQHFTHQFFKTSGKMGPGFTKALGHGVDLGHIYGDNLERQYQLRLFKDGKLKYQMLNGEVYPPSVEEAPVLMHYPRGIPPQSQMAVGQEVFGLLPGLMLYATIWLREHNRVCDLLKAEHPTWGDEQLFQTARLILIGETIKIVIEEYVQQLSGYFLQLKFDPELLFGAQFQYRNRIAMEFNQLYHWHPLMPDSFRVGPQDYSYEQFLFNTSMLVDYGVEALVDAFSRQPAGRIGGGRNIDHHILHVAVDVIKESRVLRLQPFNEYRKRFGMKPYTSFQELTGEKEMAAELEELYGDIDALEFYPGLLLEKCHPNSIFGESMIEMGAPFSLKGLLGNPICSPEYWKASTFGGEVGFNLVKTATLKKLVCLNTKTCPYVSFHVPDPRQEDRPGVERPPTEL

[5] = system: LPS-induced NO production in RAW 264.7 cells; assay: Griess assay for NO release from LPS-stimulated RAW 264.7 cells; assay type: cell-based; settings: Mus musculus, RAW264.7; for IC50: LPS-induced RAW 264.7 cells; for inhibition at 5 µM: compounds at 5 µM, 2 h before LPS, RAW 264.7 cells, read-out: NO Inhibition rates (%) ± SD
Experimental: Equal volumes of Griess reagent and the supernatant, obtained from treated RAW264.7 cells with the compounds 2 h before LPS induction, were mixed for 10 min at room temperature in the dark. The absorbance was measured at 540 nm using ELISA plate reader and the nitrite concentration was calculated from sodium nitrite standard curve. The percentage inhibition (%) is calculated as absorbance at 540 nm of (LPS-compounds)/absorbance at 540 nm of (LPS-control) ×100[47]^,[48].

[6] = system: PGE2 production in RAW 264.7 cells; assay: PGE2 concentration by ELISA in LPS-treated RAW 264.7 cells; assay type: cell-based; settings: Mus musculus, RAW264.7; LPS-induced RAW 264.7 cells
Experimental: After seeding and incubation of RAW 264.7 cells for 24 h, then the cells were treated with the compounds (4c, 4d, 6a, 6c, 6d and 6e) at different concentrations and with LPS (1 µg/ml) for another 24 h. The concentration of prostaglandin E2 (PGE2) was measured in the culture media using ELISA kit (R&D Systems, Minneapolis, MN)[50].

[7] = MTT cytotoxicity assay on RAW 264.7 cells; assay type: cell-based; settings: mouse; for IC50 at 20 h: with LPS; for IC50: without LPS
Experimental: MTT assay was used to assess the cell viability of RAW 264.7 cells cultured in RPMI-1640 complete media. […] Afterwards, 5 µl of MTT solution were added and incubated for further 4 h. Finally, 150 ul of dimethyl sulfoxide (DMSO) were added and the optical density was assessed at 570 nm using an ELISA plate reader.

[8] = system: 15-LOX; design: method as in PMID 30878890; settings: Figure 1; cited from earlier work
[9] = system: COX-2; design: method as in PMID 30878890; settings: cited from earlier work; for IC50: Figure 1
[10] = system: PGE2; settings: cited from earlier work
[11] = target: T1, iNOS; settings: cited from earlier work
[12] = system: LPS-induced NO production; settings: cited from earlier work

SMILES	SI [1]	% of edoema inhibition (% mean ± SEM), 1 h [2] [%]	% of edoema inhibition (% mean ± SEM), 2 h [2] [%]	% of edoema inhibition (% mean ± SEM), 4 h [2] [%]	IC50 [3] [µM]	IC50 [4] [µM]	IC50 [5] [µM]	inhibition at 5 µM [5] [%]	IC50 [6] [nM]	IC50 at 20 h [7] [µM]	IC50 [7] [µM]	also measured
COc1ccc(C(=O)/C=C/c2ccc(OCC(=O)O/N=C(\N)c3ccccc3)cc2)cc1 [Compound 6a, N’-(2-{4-[(1E)-3-(4-Methoxyphenyl)-3-oxoprop-1-en-1-yl]phenoxy}acetoxy) benzenecarboximidamide]	19	14.36 ± 3.11	24.33 ± 2.26	55.74 ± 2.59	6.32	20.9 ± 1.09	13.6	55.5 ± 2.4	48.1	> 80	> 80	% of edoema inhibition (% mean ± SEM), 3 h [2]: 45.83% and 45.83 ± 2.74%; melting point: 172 to 173 °C
COc1ccc2cc(C(C)C(=O)O/N=C(\N)c3ccc(OC)c(OC)c3)ccc2c1 (stereo not drawn) [V]												IC50 [8]: 2.07 nM; IC50 [9]: 6.4 nM; COX-2 inhibitory potency relative to celecoxib [9]: approximately 6.6 folds
COc1ccc2cc(C(C)C(=O)O/N=C(\N)c3ccc(Cl)cc3)ccc2c1 (stereo not drawn) [IV]												IC50 [8]: 1.77 nM; IC50 [9]: 7.15 nM
COc1ccc(/C=C/C(=O)c2ccc(OCC(=O)ON=C(N)c3ccc(OC)c(OC)c3)cc2)cc1 [Compound 4d, N’-(2-{4-[(2E)-3-(4-Methoxyphenyl)prop-2-enoyl]phenoxy}acetoxy)-3,4-dimethoxybenzenecarboximidamide]	0.25	11.65 ± 2.26	34.78 ± 3.34	54.21 ± 3.47	2.22	5.82 ± 0.3	5.73	73.5 ± 2.1	24.7	> 80	> 80	% of edoema inhibition (% mean ± SEM), 3 h [2]: 69.5% and 69.50 ± 1.49%
COc1ccc2c(c1)c(CC(=O)O/N=C(\N)c1ccccc1)c(C)n2C(=O)c1ccc(Cl)cc1 [VI]												IC50 [10]: 29 nM; IC50 ([11]; as printed in the introduction, read-out: iNOS activity IC50): 2310 nM; IC50 ([12]; as printed in the introduction, read-out: LPS-induced NO production IC50): 10.7 µM
COc1ccc(C(=O)/C=C/c2ccc(OCC(=O)O/N=C(\N)c3ccc([N+](=O)[O-])cc3)cc2)cc1 [Compound 6e, N’-(2-{4-[(1E)-3-(4-Methoxyphenyl)-3-oxoprop-2-en-1-yl]phenoxy}acetoxy)-4-nitrobenzenecarboximidamide]	7.43	10.23 ± 3.17	19.34 ± 2.45	33.21 ± 3.15	7.15	12.7 ± 0.66	15.8	57.9 ± 1.3	45.1	> 80	> 80	melting point: 193 to 194 °C
COc1ccc2c(c1)c(CC(=O)O/N=C(\N)c1ccc(OC)c(OC)c1)c(C)n2C(=O)c1ccc(Cl)cc1 [VII]												IC50 [10]: 34.5 nM; IC50 ([11]; Figure 1, read-out: iNOS IC50): 3260 nM; IC50 ([12]; Figure 1, read-out: NO IC50): 6.53 µM
